Data as given in patent US11993586B2, “Crystalline forms of potassium channel modulators” (Novartis AG, priority 2018, dated 2024).

Assay: Solid form stability (conversion on heating or storage, by 1H solution NMR and XRPD)
Format: physicochemical
Protocol: Form C was obtained by slow evaporation from an IPA solution at RT. […] (onset temperatures) and 93.3° C. (peak temperature) (FIG. 5).
Form D was obtained via slow evaporation from EtOH solution at RT. […] (onset temperatures) and an exotherm at 88.5° C. (peak temperature) (FIG. 8).
(onset temperatures) (FIG. 9).
Form F was obtained by evaporation of DCM solution (100 mg scale) at RT for 1 day. […] (onset temperatures) and an exotherm at 86.9° C. (peak temperature) (FIG. 11).

## Cc1ccn(-c2nc(NC3CCC(F)(F)CC3)cc(N3CCOCC3)n2)n1 [Form C]
Heated to 110° C.
  Solid form conversion: converted to anhydrate Form B
Stored at RT for 8 days
  Solid form conversion: converted to anhydrate Form B

## Cc1ccn(-c2nc(NC3CCC(F)(F)CC3)cc(N3CCOCC3)n2)n1 [Form D]
Stored at RT for a month
  Solid form conversion: converted to anhydrate Form B

## Cc1ccn(-c2nc(NC3CCC(F)(F)CC3)cc(N3CCOCC3)n2)n1 [Form E]
Heated to 130° C.
  Solid form conversion: converted to anhydrate Form B

## Cc1ccn(-c2nc(NC3CCC(F)(F)CC3)cc(N3CCOCC3)n2)n1 [Form F]
Heated to 120° C.
  Solid form conversion: converted to anhydrate Form B
